From patent publication US8435978B2, “Substituted sulfonamide compounds” (Gruenenthal GmbH, priority 2006, dated 2013)
Where a name gives a salt, the structure may show the parent alone.

Assays:
human B1R receptor = target: T1, human B1R receptor (Homo sapiens, UniProt P46663); assay: Functional study on the bradykinin receptor 1 (B1R), FLIPR Ca2+ assay, hB1R cells; format: cell-based; conditions: CHO-K1, test substance 10 μM, agonist Lys-Des-Arg9-bradykinin 0.5 nM, % inhibition compared with the maximum achievable inhibition, read-out: B1R Antagonism, human [10 μM] % Inhibition
T1 construct: host or cells: CHO K1 cells (Chinese hamster ovary), stably transfected
T1 sequence (P46663 1-353): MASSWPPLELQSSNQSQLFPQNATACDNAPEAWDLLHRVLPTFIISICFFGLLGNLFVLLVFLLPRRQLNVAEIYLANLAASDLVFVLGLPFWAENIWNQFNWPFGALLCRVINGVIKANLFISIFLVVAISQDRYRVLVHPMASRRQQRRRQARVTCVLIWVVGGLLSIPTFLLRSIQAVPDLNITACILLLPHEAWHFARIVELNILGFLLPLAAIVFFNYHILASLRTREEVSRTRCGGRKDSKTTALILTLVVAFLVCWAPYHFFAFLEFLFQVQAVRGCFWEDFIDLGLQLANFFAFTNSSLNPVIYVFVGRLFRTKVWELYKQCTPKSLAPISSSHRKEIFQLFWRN
How it was run: (§1)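 Readout: peak Fluo-4 Ca2+ fluorescence, FLIPR. Stable CHO K1 hB1R or rB1R cells; cpd 10 μM, 10 min preincubation, then agonist (hB1R: Lys-Des-Arg9-BK 0.5 nM; rB1R: Des-Arg9-BK 100 nM). Value = % inhibition relative to maximal achievable inhibition.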

B1R receptor of the rat = target: T2, B1R receptor of the rat (Rattus norvegicus, UniProt P97583); assay: Functional study on the bradykinin receptor 1 (B1R), FLIPR Ca2+ assay, rB1R cells; format: cell-based; conditions: CHO-K1, test substance 10 μM, agonist Des-Arg9-bradykinin 100 nM, % inhibition compared with the maximum achievable inhibition, read-out: B1R Antagonism, rat [10 μM] % Inhibition
T2 construct: host or cells: CHO K1 cells (Chinese hamster ovary), stably transfected
T2 sequence (P97583 1-337): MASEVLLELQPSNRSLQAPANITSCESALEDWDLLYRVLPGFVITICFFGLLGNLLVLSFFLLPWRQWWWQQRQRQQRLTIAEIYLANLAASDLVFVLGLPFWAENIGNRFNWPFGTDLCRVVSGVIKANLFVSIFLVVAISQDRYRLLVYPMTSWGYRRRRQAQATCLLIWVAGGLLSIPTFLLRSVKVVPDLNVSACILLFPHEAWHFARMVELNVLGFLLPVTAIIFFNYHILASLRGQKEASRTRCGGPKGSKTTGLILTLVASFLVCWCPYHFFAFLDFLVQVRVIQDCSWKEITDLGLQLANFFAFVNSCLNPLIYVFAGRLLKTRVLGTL
How it was run: as §1

| Structure (SMILES) | inhibition at 10 µM (human B1R receptor) [%] | inhibition at 10 µM (B1R receptor of the rat) [%] |
| --- | --- | --- |
| O=C(COCC1CCCCN1S(=O)(=O)c1c(Cl)cc(Cl)cc1Cl)NCc1ccc(N2CCCCC2)cc1 (stereo not drawn) [Example 74, N-(4-piperidin-1-yl-benzyl)-2-[1-(2,4,6-trichloro-phenylsulfonyl)-piperidin-2-yl-methoxy]-acetamide] | 50.4 | 103 |
| COc1cc(C)c(S(=O)(=O)N2CCCCC2COCC(=O)NCc2ccccc2Oc2cnccn2)c(C)c1 (stereo not drawn) [Example 205, 2-((1-(4-methoxy-2,6-dimethylphenylsulfonyl)piperidin-2-yl)methoxy)-N-(2-(pyrazin-2-yloxy)benzyl)acetamide] | 50 | 99.7 |
| O=C(COCC1CCCN1S(=O)(=O)c1c(Cl)cccc1Cl)N1CCC(CCN2CCCCC2)CC1 (stereo not drawn) [Example 286, 2-((1-(2,6-dichlorophenylsulfonyl)pyrrolidin-2-yl)methoxy)-1-(4-(2-(piperidin-1-yl)ethyl)piperidin-1-yl)ethanone] | 104 | 97.9 |
| CN(C)CCCN1CCN(C(=O)COCC2CCCCN2S(=O)(=O)c2cccc(C(F)(F)F)c2)CC1 (stereo not drawn) [Example 58, 1-[4-(3-dimethylamino-propyl)-piperazin-1-yl]-2-[1-(3-trifluoromethyl-phenylsulfonyl)-piperidin-2-ylmethoxy]-ethanone] | 62.2 | 10.2 |
| COc1cc(C)c(S(=O)(=O)N2CCCCC2COCC(=O)N2CCN(C(=O)OC(C)(C)C)CC2)c(C)c1 (stereo not drawn) [Example 101, tert-butyl 4-(2-((1-(4-methoxy-2,6-dimethylphenylsulfonyl)piperidin-2-yl)methoxy)acetyl)piperazin-1-carboxylate] | 100 | 100 |
| COc1cc(C)c(S(=O)(=O)N2CCCCC2COCC(=O)N2CCN(c3ccc(Cl)c(Cl)c3)CC2)c(C)c1 (stereo not drawn) [Example 378, 1-(4-(3,4-dichlorophenyl)piperazin-1-yl)-2-((1-(4-methoxy-2,6-dimethylphenylsulfonyl)piperidin-2-yl)methoxy)ethanone] | 63.4 | 98.8 |
| Cc1cc(C)c(S(=O)(=O)N2CCCCC2COCC(=O)N2CCCC2CN2CCCCC2)c(C)c1 (stereo not drawn) [Example 27, 1-(2-piperidin-1-ylmethyl-pyrrolidin-1-yl)-2-[1-(2,4,6-trimethyl-phenylsulfonyl)-piperidin-2-ylmethoxy]-ethanone] | 85.4 | 97.7 |
| CN1CCN(C(=O)COCC2CCCCN2S(=O)(=O)c2c(Cl)cccc2Cl)C(c2ccccc2)C1 (stereo not drawn) [Example 455, 2-((1-(2,6-dichlorophenylsulfonyl)piperidin-2-yl)methoxy)-1-(4-methyl-2-phenylpiperazin-1-yl)ethanone] | 103 | 99.3 |
| COc1ccc(S(=O)(=O)N2CCCCC2COCC(=O)N2CCN(c3nc(CCc4ccccc4)cs3)CC2)cc1 (stereo not drawn) [Example 220, 2-((1-(4-methoxyphenylsulfonyl)piperidin-2-yl)methoxy)-1-(4-(4-phenethylthiazol-2-yl)piperazin-1-yl)ethanone] | 15.3 | 86.3 |
| Cc1ccc2ccccc2c1S(=O)(=O)N1CCCCC1COCC(=O)N1CCN(C2CCN(C)CC2)CC1 (stereo not drawn) [Example 157, 2-((1-(2-methylnaphthalen-1-ylsulfonyl)piperidin-2-yl)methoxy)-1-(4-(1-methylpiperidin-4-yl)piperazin-1-yl)ethanone dihydrochloride] | 98.2 | 100 |
| CN1CCC(N2CCN(C(=O)COCC3CCCCN3S(=O)(=O)c3ccccc3Cl)CC2)CC1 (stereo not drawn) [Example 139, 2-((1-(2-chlorophenylsulfonyl)piperidin-2-yl)methoxy)-1-(4-(1-methylpiperidin-4-yl)piperazin-1-yl)ethanone dihydrochloride] | 99.9 | 98.8 |
| COc1cc(C)c(S(=O)(=O)N2CCCCC2COCC(=O)N2CCCC2c2ccc(N(C)C)cc2)c(C)c1 (stereo not drawn) [Example 398, 1-(2-(4-(dimethylamino)phenyl)pyrrolidin-1-yl)-2-((1-(4-methoxy-2,6-dimethylphenylsulfonyl)piperidin-2-yl)methoxy)ethanone] | 59.8 | 98 |
| O=C(COCC1CCCCN1S(=O)(=O)c1c(Cl)cccc1Cl)NCc1ccc(CN2CCOCC2)cc1 (stereo not drawn) [Example 549, 2-((1-(2,6-dichlorophenylsulfonyl)piperidin-2-yl)methoxy)-N-(4-(morpholinomethyl)benzyl)acetamide] | 75.8 | 99 |

Continued, values first:

| inhibition at 10 µM (human B1R receptor) [%] | inhibition at 10 µM (B1R receptor of the rat) [%] | Structure (SMILES) |
| --- | --- | --- |
| 107 | 101 | CC(C)N(CCN1CCN(C(=O)COCC2CCCN2S(=O)(=O)c2c(Cl)cc(Cl)cc2Cl)CC1)C(C)C (stereo not drawn) [Example 333, 1-(4-(2-(diisopropylamino)ethyl)piperazin-1-yl)-2-((1-(2,4,6-trichlorophenylsulfonyl)pyrrolidin-2-yl)methoxy)ethanone] |
| 102 | 102 | Cc1cc(C)c(S(=O)(=O)N2CCCCC2COCC(=O)N2CCN(C3CCN(C)CC3)CC2)c(C)c1 (stereo not drawn) [Example 107, 2-((1-(mesitylsulfonyl)piperidin-2-yl)methoxy)-1-(4-(1-methylpiperidin-4-yl)piperazin-1-yl)ethanone] |
| 102 | 82.8 | CN1CCC(N2CCN(C(=O)COCC3CCCCN3S(=O)(=O)c3cc4ccccc4s3)CC2)CC1 (stereo not drawn) [Example 171, 2-((1-(benzo[b]thiophen-2-ylsulfonyl)piperidin-2-yl)methoxy)-1-(4-(1-methylpiperidin-4-yl)piperazin-1-yl)ethanone] |
| 23.4 | 96.8 | CN(C)c1ccc(CNC(=O)COCC2CCCN2S(=O)(=O)c2c(Cl)cc(Cl)cc2Cl)cc1 (stereo not drawn) [Example 575, N-(4-(dimethylamino)benzyl)-2-((1-(2,4,6-trichlorophenylsulfonyl)pyrrolidin-2-yl)methoxy)acetamide] |
| 69.6 | 0 | O=C(COCC1CCCN1S(=O)(=O)c1ccc(Cl)c(Cl)c1)N1CCN(Cc2ccc3c(c2)OCO3)CC1 (stereo not drawn) [Example 44, 1-(4-benzo[1,3]dioxol-5-ylmethyl-piperazin-1-yl)-2-[1-(3,4-dichloro-phenylsulfonyl)-pyrrolidin-2-ylmethoxy]-ethanone] |
| 103 | 103 | COc1cc(C)c(S(=O)(=O)N2CCCCC2COCC(=O)N2CCN(CC3CCN(C)CC3)CC2)c(C)c1 (stereo not drawn) [Example 106, 2-((1-(4-methoxy-2,6-dimethylphenylsulfonyl)piperidin-2-yl)methoxy)-1-(4-((1-methylpiperidin-4-yl)methyl)piperazin-1-yl)ethanone dihydrochloride] |
| 106 | 103 | COc1cc(C)c(S(=O)(=O)N2CCCC2COCC(=O)NCC2CCCN(Cc3ccccc3)C2)c(C)c1 (stereo not drawn) [Example 300, N-((1-benzylpiperidin-3-yl)methyl)-2-((1-(4-methoxy-2,6-dimethylphenylsulfonyl)pyrrolidin-2-yl)methoxy)acetamide] |
| 77.4 | 100 | COc1ccc(S(=O)(=O)N2c3ccccc3CC2COCC(=O)N2CCC(CCN3CCCCC3)CC2)cc1 (stereo not drawn) [Example 547, 2-((1-(4-methoxyphenylsulfonyl)indolin-2-yl)methoxy)-1-(4-(2-(piperidin-1-yl)ethyl)piperidin-1-yl)ethanone] |
| 77.9 | 100 | COc1cc(C)c(S(=O)(=O)N2CCCCC2COCC(=O)N2CCN(Cc3ccc(Cl)c(Cl)c3)CC2)c(C)c1 (stereo not drawn) [Example 381, 1-(4-(3,4-dichlorobenzyl)piperazin-1-yl)-2-((1-(4-methoxy-2,6-dimethylphenylsulfonyl)piperidin-2-yl)methoxy)ethanone] |
| 105 | 102 | CN(C)CCCN1CCN(C(=O)COCC2CCCCN2S(=O)(=O)c2c(Cl)cccc2Cl)CC1 (stereo not drawn) [Example 564, 2-((1-(2,6-dichlorophenylsulfonyl)piperidin-2-yl)methoxy)-1-(4-(3-(dimethylamino)propyl)piperazin-1-yl)ethanone] |
| 87.1 | 103 | COc1cc(C)c(S(=O)(=O)N2CCCC2COCC(=O)N2CCN(c3ccc(Cl)c(Cl)c3)CC2)c(C)c1 (stereo not drawn) [Example 348, 1-(4-(3,4-dichlorophenyl)piperazin-1-yl)-2-((1-(4-methoxy-2,6-dimethylphenylsulfonyl)pyrrolidin-2-yl)methoxy)ethanone] |
